Measurements: patent EP0979827A1, “Peptides having tachykinin antagonist activity, a process for preparation thereof and pharmaceutical compositions comprising the same” (Boehringer Ingelheim Pharma KG, priority 1992, dated 1994)

What follows are compounds tested against T1, NK1-Rezeptor (Substanz P-Rezeptor) (Homo sapiens, UniProt P25103) (assay: Receptor affinity for the NK1 receptor: displacement of 125I-labelled substance P on IM-9 cells). Conditions: humane Lymphoblastoma-Zellen (IM-9) mit klonierten NK1-Rezeptoren; Verdrängung von 125J-markierter Substanz P; read-out: IC50-Werte.
T1 construct: expressed in transfected cells; host or cells: human lymphoblastoma cells IM-9
T1 sequence (P25103 whole entry): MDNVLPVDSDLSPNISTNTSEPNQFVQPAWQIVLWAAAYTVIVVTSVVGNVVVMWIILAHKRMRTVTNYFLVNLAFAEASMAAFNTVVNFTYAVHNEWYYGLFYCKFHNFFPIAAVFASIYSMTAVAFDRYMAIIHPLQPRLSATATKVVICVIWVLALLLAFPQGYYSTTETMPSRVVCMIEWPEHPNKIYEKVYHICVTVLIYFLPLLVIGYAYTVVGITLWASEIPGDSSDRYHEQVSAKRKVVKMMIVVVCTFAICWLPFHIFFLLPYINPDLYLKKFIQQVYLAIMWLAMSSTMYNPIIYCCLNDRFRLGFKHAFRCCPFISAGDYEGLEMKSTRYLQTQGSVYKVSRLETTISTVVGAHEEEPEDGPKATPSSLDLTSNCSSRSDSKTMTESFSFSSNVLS
Assay type: binding
Description: Die Rezeptoraffinität zum NK1-Rezeptor (Substanz P-Rezeptor) wurde an humanen Lymphoblastoma-Zellen (IM-9) mit klonierten NK1-Rezeptoren bestimmt, wobei die Verdrängung von ^125J-markierter Substanz P gemessen wird. Die so erhaltenen IC50-Werte betragen: Verb. A : 60 nM Verb. B : 21 nM Verb. C : 90 nM Verb. D : 45 nM [drawing 26]
`CN(Cc1ccccc1)C(=O)[C@H](Cn1cccc1)NC(=O)[C@@H]1C[C@@H](O)CN1C(=O)c1c[nH]c2ccccc12` [Verb. A] gave an IC50 of 60 nM.
`CN(Cc1ccccc1)C(=O)[C@H](COCc1ccccc1)NC(=O)[C@@H]1C[C@@H](O)CN1C(=O)c1c[nH]c2ccccc12` [Verb. B] was tested, and the IC50 was 21 nM.
Work on `CN(Cc1ccccc1)C(=O)[C@H](CC1CCCCC1)NC(=O)[C@@H]1C[C@@H](O)CN1C(=O)c1c[nH]c2ccccc12` [Verb. D] yielded an IC50 of 45 nM.
